From patent US11878965B2, “Inhibitors of peptidylarginine deiminases” (Gilead Sciences, Inc., priority 2020, dated 2024)

Molecular target: human PAD4 (Homo sapiens (Human), UniProt Q9UM07)
Assay: In Vitro PAD4 BAEE Biochemical Assay
Settings: human PAD4, BAEE substrate; 5 nM PAD4, 2 mM calcium chloride, 3 mM BAEE; geometric mean of multiple experiments
In short: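 Recombinant human PAD4 (His-SUMO tag removed, E. coli-expressed), 5 nM, preincubated with compound and 2 mM CaCl2 30 min at 25 °C in MOPS pH 7.6 with DTT; 3 mM BAEE added for 2 h at 25 °C, EDTA stop. Released ammonia detected by o-phthalaldehyde/DTT fluorescence (ex 405, em 535 nm).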

Chain of human PAD4 (Q9UM07 2-663): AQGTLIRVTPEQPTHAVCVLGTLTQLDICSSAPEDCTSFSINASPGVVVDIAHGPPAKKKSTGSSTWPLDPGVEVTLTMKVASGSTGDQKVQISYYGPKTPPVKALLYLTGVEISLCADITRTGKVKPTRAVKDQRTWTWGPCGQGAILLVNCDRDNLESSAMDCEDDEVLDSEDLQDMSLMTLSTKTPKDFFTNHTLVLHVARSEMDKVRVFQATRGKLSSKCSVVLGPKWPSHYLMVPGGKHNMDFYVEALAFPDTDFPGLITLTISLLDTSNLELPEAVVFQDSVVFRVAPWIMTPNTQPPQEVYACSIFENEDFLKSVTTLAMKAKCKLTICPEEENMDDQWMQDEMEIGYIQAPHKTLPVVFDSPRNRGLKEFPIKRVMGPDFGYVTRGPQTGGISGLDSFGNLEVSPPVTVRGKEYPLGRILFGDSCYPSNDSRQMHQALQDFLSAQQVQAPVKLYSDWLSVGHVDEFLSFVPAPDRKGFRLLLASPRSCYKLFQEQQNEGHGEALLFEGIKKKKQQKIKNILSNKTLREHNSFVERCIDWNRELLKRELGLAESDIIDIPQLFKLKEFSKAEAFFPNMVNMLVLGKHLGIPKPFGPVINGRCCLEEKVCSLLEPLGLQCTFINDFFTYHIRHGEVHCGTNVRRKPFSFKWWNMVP

Row | Compound | IC50 [nM]
1 | COc1cc(C(=O)N2C[C@H](N)CCN2C)cc2nc(-c3cc4ccc([C@@H](C)NC(=O)c5ncccc5C)nc4n3CC3CC3)n(C)c12 [Example 175, N-((R)-1-(2-(5-((R)-5-amino-2-methylhexahydropyridazine-1-carbonyl)-7-methoxy-1-methyl-1H-benzo[d]imidazol-2-yl)-1-(cyclopropylmethyl)-1H-pyrrolo[2,3-b]pyridin-6-yl)ethyl)-3-methylpicolinamide] | 139
2 | COc1cc(C(=O)N2C[C@H](N)CCN2C)cc2nc(-c3cc4ccc([C@@H](C)NC(=O)c5cc(F)ccc5C)nc4n3CC3CC3)n(C)c12 [Example 197, N-((R)-1-(2-(5-((R)-5-amino-2-methylhexahydropyridazine-1-carbonyl)-7-methoxy-1-methyl-1H-benzo[d]imidazol-2-yl)-1-(cyclopropylmethyl)-1H-pyrrolo[2,3-b]pyridin-6-yl)ethyl)-5-fluoro-2-methylbenzamide] | 116
3 | COc1cc(C(=O)N2C[C@@H]3C[C@@H](N)[C@H]2C3)cc2nc(-c3cc4ccc(N(C(F)F)S(C)(=O)=O)nc4n3CC3CC3)n(C)c12 [Example 82, N-(2-(5-((1R,4R,6R)-6-amino-2-azabicyclo[2.2.1]heptane-2-carbonyl)-7-methoxy-1-methyl-1H-benzo[d]imidazol-2-yl)-1-(cyclopropylmethyl)-1H-pyrrolo[2,3-b]pyridin-6-yl)-N-(difluoromethyl) methanesulfonamide] | 47600

Compounds with a lower IC50, results first:

Row | IC50 [nM] | Compound
4 | 82.3 | COc1cc(C(=O)N2C[C@H](N)[C@@H]3CC[C@H]2C3)cc2nc(-c3cc4ccc([C@@H](C)NC(=O)C5CC(F)(F)C5)nc4n3CC3CC3)n(C)c12 [Example 228, N-((R)-1-(2-(5-((1S,4R,5R)-4-amino-2-azabicyclo[3.2.1]octane-2-carbonyl)-7-methoxy-1-methyl-1H-benzo[d]imidazol-2-yl)-1-(cyclopropylmethyl)-1H-pyrrolo[2,3-b]pyridin-6-yl)ethyl)-3,3-difluorocyclobutane-1-carboxamide]
5 | 46.8 | C[C@@H](NC(=O)[C@H]1CC1(F)F)c1ccc2cc(-c3nc4cc(C(=O)N5C[C@H](N)[C@@H]6CC[C@H]5C6)cc(F)c4n3C3CC3)n(CC3CC3)c2n1 [Example 227, (R)-N-((R)-1-(2-(5-((1S,4R,5R)-4-amino-2-azabicyclo[3.2.1]octane-2-carbonyl)-1-cyclopropyl-7-fluoro-1H-benzo[d]imidazol-2-yl)-1-(cyclopropylmethyl)-1H-pyrrolo[2,3-b]pyridin-6-yl)ethyl)-2,2-difluorocyclopropane-1-carboxamide]
6 | 43.4 | COc1cc(C(=O)N2CCC[C@@H](N)C2)cc2nc(-c3cc4ccc(N5[C@@H](C)CCCS5(=O)=O)nc4n3CC3CC3)n(C3CC3)c12 [Example 101, ((R)-3-aminopiperidin-1-yl)(1-cyclopropyl-2-(1-(cyclopropylmethyl)-6-((S)-3-methyl-1,1-dioxido-1,2-thiazinan-2-yl)-1H-pyrrolo[2,3-b]pyridin-2-yl)-7-methoxy-1H-benzo[d]imidazol-5-yl)methanone]
